Assay [1] has as its system MT2. In words: Concentration resulting in 90% inhibition of viral RNA production in HIV-1 infected MT-2 cells. The assay is classed as functional. The note with it: Homo sapiens.
The target in assay [2] is Human immunodeficiency virus type 1 protease (Human immunodeficiency virus 1, UniProt Q72874). As to the kind of experiment: Inhibitory activity against HIV protease enzyme.

Each structure is given as a SMILES string.

The IC90 is the point of the concentration-response curve where the effect stands at 90%. A lower IC90 goes with greater potency. A word on the Ki: it is the dissociation constant of the complex between target and ligand, obtained from inhibition or displacement. Higher therefore signals a looser hold on the target.

The compound `COC(=O)CCCC[C@@H]1SCC2C1N(Cc1cccc(Br)c1)C(=O)N2Cc1cccc(Br)c1` (some centres not stated) displayed an IC90 in assay [1] of 44 µM. In addition, in assay [2], the Ki came out at 0.58 µM.

With `O=C1N(Cc2cccc(Br)c2)C2CS[C@@H](CCCCCO)C2N1Cc1cccc(Br)c1` (some centres not stated), it took 7 µM to reach the 90% level in assay [1] (IC90). In assay [2], this compound registered a Ki of 0.5 µM.

The compound `CC(=O)c1cccc(CN2C(=O)N(Cc3cccc(C(C)=O)c3)C3C2CS[C@H]3CCCCCO)c1` (some centres not stated) gave an IC90 in assay [1] of 26 µM. Also, the affinity in assay [2], expressed as Ki, was 3.7 µM.

As to `O=C1N(Cc2ccccc2)C2CS[C@@H](CCCCCO)C2N1Cc1ccccc1` (some centres not stated), the IC90 in assay [1] turned out to be 46 µM. The compound also showed a Ki in assay [2] of 10.3 µM.

The compound `CC(=O)c1cccc(COC(=O)CCCC[C@@H]2SCC3C2N(Cc2cccc(C(C)=O)c2)C(=O)N3Cc2cccc(C(C)=O)c2)c1` (some centres not stated) came in with an IC90 in assay [1] of 12.5 µM. In assay [2], this compound showed a Ki of 3.4 µM.

Compound `O=C(O)CCCC[C@@H]1SCC2C1N(Cc1cccc(Br)c1)C(=O)N2Cc1cccc(Br)c1` (some centres not stated) came in with an IC90 in assay [1] of 34 µM. In assay [2], this compound had an inhibitory constant (Ki) of 2.2 µM.

In the case of `COC(=O)CCCC[C@H]1C2C(CS1(=O)=O)N(Cc1cccc(Br)c1)C(=O)N2Cc1cccc(Br)c1` (some centres not stated), the IC90 in assay [1] is > 80 µM. In addition, the affinity in assay [2], expressed as Ki, was 4.1 µM.

As for `O=C1N(Cc2cccc(Br)c2)C2CS(=O)(=O)[C@@H](CCCCCO)C2N1Cc1cccc(Br)c1` (some centres not stated), in assay [1], the 90% effect level (IC90) was put at 80 µM. Also, in assay [2], affinity was put at a Ki of 6.9 µM.

As to `O=C(CCCC[C@@H]1SCC2C1N(Cc1cccc(Br)c1)C(=O)N2Cc1cccc(Br)c1)OCc1cccc(Br)c1` (some centres not stated), the IC90 in assay [1] was determined as 45 µM. This compound also had a Ki in assay [2] of 0.68 µM.

As for `C/C(=N\O)c1cccc(COC(=O)CCCC[C@@H]2SCC3C2N(Cc2cccc(/C(C)=N/O)c2)C(=O)N3Cc2cccc(/C(C)=N/O)c2)c1` (some centres not stated), the IC90 in assay [1] was found to be 67 µM. The compound further gave a Ki in assay [2] of 2.7 µM.

Regarding `CC(O)c1cccc(CN2C(=O)N(Cc3cccc(C(C)O)c3)C3C2CS[C@H]3CCCCCO)c1` (some centres not stated), the IC90 in assay [1] was > 98 µM. The same compound yielded a Ki in assay [2] of 1.9 µM.

The values above are taken from ChEMBL document CHEMBL1152012, “Synthesis of (+)-biotin derivatives as HIV-1 protease inhibitors” (Bioorg Med Chem Lett, 1996).
